In series [1] the test system is B cell receptor signals (CD69). As to the kind of experiment: Whole blood B cell receptor signaling, anti-IgD stimulated CD69 on CD19+ B cells. It counts as cell-based. To be noted: whole blood of four healthy donors, 2 hours incubation, anti-human IgD 18 hours. As for the experimental part:
Blood from four healthy donors was incubated for 2 hours with the compounds shown over a concentration range, and then stimulated with anti-human IgD [10 μg/mL] for 18 hours. The mean fluorescent intensity (MFI) of CD69 (and CD86, data not shown) on gated CD19+ B cells was measured by flow cytometry.

Series [2] has as its system human platelet-mediated thrombosis. Nature of the series: In vivo human thrombus formation in the VWF HA1 mice model (laser-induced injury). To be noted: pretreated human platelets. As for the experimental part: Constitutive or aberrant activation of the BCR signaling cascade has been implicated in the propagation and maintenance of a variety of B cell malignancies. […] J. Haematol. […] In fact, both Tec and BTK play an important role in the regulation of phospholipase Cγ2 (PLCγ2) downstream of the collagen receptor glycoprotein VI (GPVI) in human platelets. […] Biotechnol.
Injury to the vessel wall of arterioles ([…] diameter) was performed using a pulsed nitrogen dye laser (440 nm, Photonic Instruments) applied through a 20× water-immersion Olympus objective (LUMPlanFl, 0.5 numerical aperature (NA)) of a Zeiss Axiotech vario microscope. […] The extent of thrombus formation was assessed for 2 minutes after injury and the area (μm^2) of coverage determined (Image IQ, Andor Technology).
The BTK inhibitor-treated human platelets were fluorescently labeled and infused continuously through a catheter inserted into the femoral artery.

Series [3] relates to GPVI platelet aggregation. Nature of the series: GPVI (convulxin-induced) platelet aggregation. It counts as cell-based. To be noted: human platelets. On the procedure:
GPVI platelet aggregation was measured for Formula (XVIII) and Formula XX-A (ibrutinib). Blood was obtained from untreated humans, and platelets were purified from […] by centrifugation. Cells were resuspended to a final concentration of 350,000/μL in buffer containing 145 mmol/L NaCl, 10 mmol/L HEPES, 0.5 mmol/L Na2HPO4, 5 mmol/L KCl, 2 mmol/L MgCl2, 1 mmol/L CaCl2, and 0.1% glucose, at pH 7.4. Stock solutions of […] were prepared on the day of experimentation and added to platelet suspensions 5 minutes (37° C., 1200 rpm) before the induction of aggregation. Aggregation was assessed with a Chronolog Lumi-Aggregometer (model 540 VS; Chronolog, Havertown, Pa.) and permitted to proceed for 6 minutes after the addition of agonist. The results are reported as maximum percent change in light transmittance from baseline with platelet buffer used as a reference.
In FIG. 126, the results of CVX-induced (250 ng/mL) human platelet aggregation results before and 15 minutes after administration of the BTK inhibitors to 6 healthy individuals are shown.

A further series has as its system Raji cells. As to the kind of experiment: Antibody-dependent NK cell-mediated cytotoxicity, chromium release assay. In kind it is cell-based. To be noted: 1 μM; chromium-labeled Raji cells, 4 hours, variable rituximab concentrations, effector:target ratio 25:1; FIG. 134.

Structures are written as SMILES. “Also recorded” adds a separate entry of the source.

On to `C=CC(=O)Nc1cccc(Nc2nc(Nc3ccc(OCCOC)cc3)ncc2F)c1` [CC-292, N-(3-((5-fluoro-2-((4-(2-methoxyethoxy)phenyl)amino)pyrimidin-4-yl)amino)phenyl)acrylamide, reference compound], for which the EC50 in series [1] came to 0.121 µM. The “Effect on human platelet-mediated thrombus formation” value in series [2] is “interfere with thrombus formation; also recorded: showed an effect similar to Formula XX-A (ibrutinib)”.
Take `C=CC(=O)N1CCC[C@@H](n2nc(-c3ccc(Oc4ccccc4)cc3)c3c(N)ncnc32)C1` [ibrutinib, reference compound]: the GPVI platelet aggregation result in series [3] is listed as “significantly inhibits GPVI platelet aggregation”. In addition, in the series with Raji cells, the “antibody-dependent NK cell-mediated cytotoxicity (percent lysis of tumor cells)” value is given as “antagonizes”.

(Values after patent publication US20170224819A1, “Therapeutic Combinations of a BTK Inhibitor, a PI3K Inhibitor, a JAK-2 Inhibitor, and/or a CDK 4/6 Inhibitor” (Acerta Pharma B.V., priority 2014, published 2017).)
